Source: article PMC11111404, “Discovery of potent small-molecule inhibitors of lipoprotein(a) formation” (Nature, 2024)
Where “and” joins values, the source holds several entries; their conditions need not be identical. Identical values can stand only once. Like-named read-outs stand apart in the source and are kept apart here. Blank lines part the entries; values can stand above or below the compound they belong to.

How the values were obtained:
apo(a) KIV2 = molecular target: T1, apo(a) KIV2 (Homo sapiens, UniProt P08519); assay: ITC binding to apo(a) KIV2; conditions: for binding to KIV2 / Kd: ITC; for binding to KIV2: in words; for Fold-difference (KIV2:KIV8): ratio of ITC Kd values KIV2:KIV8
T1 construct: made in house
T1 sequence (P08519 141-219 limits assumed): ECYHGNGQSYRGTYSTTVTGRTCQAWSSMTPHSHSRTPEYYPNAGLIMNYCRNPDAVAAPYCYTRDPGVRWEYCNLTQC
Description: The nucleotide sequence encoding the human LPA gene (NP_005568.2) was inserted into a mammalian expression vector containing a cytomegalovirus promoter. Protein expression was performed by transient transfection of human embryonic kidney 293 (HEK293) cells cultured in serum-free medium. The culture medium was collected five days after transfection and human apo(a) protein was purified using L-lysine affinity chromatography. Nucleotide sequences encoding various KIV domains of human apo(a) and human and rat plasminogen were inserted into a pET21a Escherichia coli expression vector. Bacterial BL21(DE3) was used as the expression host, and the induction of protein expression was performed in 2× TY medium with 1 mM isopropyl β-D-1-thiogalactopyranoside at 37 °C for 5 h. Cells were collected and stored at –80 °C for subsequent protein purification and refolding. The frozen cell pellets were lysed and inclusion bodies were purified. The protein refolding was performed using the rapid-dilution method, and the refolded proteins were further purified by size-exclusion chromatography. All protein concentrations were determined by A280.
Experiments were performed on a MicroCal Auto-iTC200 titration calorimeter (Malvern Panalytical), with a cell volume of 200 μl and a 40-μl microsyringe. Experiments were performed at 25 °C while stirring at 750 rpm in ITC buffer (50 mM phosphate buffer at pH 8.0). The microsyringe was loaded with a solution of the respective compounds, with the concentration measured by quantitative nuclear magnetic resonance, and was inserted into the calorimetric cell prefilled with the respective recombinant proteins of known concentration in ITC buffer. The system was equilibrated to 25 °C and an extra delay of 60 s was applied. The first titrations were performed using an initial control injection of 0.5 μl, followed by 18 identical injections of 2 μl, with a duration of 4 s per injection and 150-s intervals between injections. The second titration was performed over the first titration without cleaning the cell and was carried out with continuous injections as an automation method in a MicroCal Auto-iTC200. The second titrations were performed using 19 identical injections of 2 μl, with a duration of 4 s per injection and 150-s injection intervals. The data were corrected for ligand heats of dilution and were deconvoluted using MicroCal PEAQ-ITC Analysis Software to yield the enthalpy of binding (ΔH) and the binding constant (K). Thermodynamic parameters were calculated using the basic equation of thermodynamics (ΔG = ΔH – TΔS = –RTlnKd), where ΔG, ΔH and ΔS are the changes in free energy, enthalpy and entropy of binding, respectively; Kd is the equilibrium dissociation constant; T is the absolute temperature (kelvins); and R is the gas constant (1.987 cal mol^−1 K^−^1). A single-binding-site model was used in MicroCal PEAQ-ITC Analysis Software v.0.9.

[1] = Pharmacokinetics in monkey plasma after oral dosing; type: in vivo
plasmin activity = molecular target: T2, plasmin activity (Rattus norvegicus, UniProt Q01177); assay: Rat plasma plasmin (plasminogen) activity ex vivo after oral dosing; type: in vivo; conditions: for plasma plasmin activity measured ex vivo: rats treated orally at pharmacological doses; for PLG activity % change from Vehicle: Vehicle mean 267.0; for PLG activity (Vmax), % change from Vehicle: vehicle mean 431.7
T2 construct: Plasma samples were collected via the abdominal aorta; from tissue; host or cells: Citrated plasma of orally dosed male Sprague Dawley rats
T2 sequence (Q01177 20-812 limits assumed): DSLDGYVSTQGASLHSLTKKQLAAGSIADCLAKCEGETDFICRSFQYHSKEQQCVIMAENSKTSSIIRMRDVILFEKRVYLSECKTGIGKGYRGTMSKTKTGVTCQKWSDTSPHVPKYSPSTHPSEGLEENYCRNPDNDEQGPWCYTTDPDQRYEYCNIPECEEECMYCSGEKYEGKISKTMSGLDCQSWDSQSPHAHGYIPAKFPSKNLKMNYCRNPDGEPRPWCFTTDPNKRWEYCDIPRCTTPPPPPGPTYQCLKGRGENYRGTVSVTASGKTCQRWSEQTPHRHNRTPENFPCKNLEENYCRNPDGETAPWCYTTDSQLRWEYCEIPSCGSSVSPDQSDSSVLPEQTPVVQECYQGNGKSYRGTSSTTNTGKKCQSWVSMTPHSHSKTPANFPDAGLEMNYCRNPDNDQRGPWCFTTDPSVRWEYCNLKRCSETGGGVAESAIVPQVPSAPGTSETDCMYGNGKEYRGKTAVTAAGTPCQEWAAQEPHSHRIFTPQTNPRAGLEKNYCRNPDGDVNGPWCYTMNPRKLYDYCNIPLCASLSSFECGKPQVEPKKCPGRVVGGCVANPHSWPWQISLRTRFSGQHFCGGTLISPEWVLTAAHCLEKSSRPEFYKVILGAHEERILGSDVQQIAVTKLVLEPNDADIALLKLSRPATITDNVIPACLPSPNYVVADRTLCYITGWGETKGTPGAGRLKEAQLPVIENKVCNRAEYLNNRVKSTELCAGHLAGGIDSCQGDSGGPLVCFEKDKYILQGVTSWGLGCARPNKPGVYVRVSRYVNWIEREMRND
Description: Male Sprague Dawley rats (Charles River, average body weight 310 g, aged eight to nine weeks old) were housed in cages with a standard light cycle (12-h light, 12-h dark), at room temperature (22 ± 4 °C), with a relative humidity of 30–70%. Rats were identified by numbers on the cage cards. After arrival, rats were fed on a normal diet (Harlan Teklad diet 2014) and randomized to treatment groups (n = 5 per group) by baseline plasma plasminogen concentration and activity using a BRAT. LSN3441732 and LY3473329 were administered QD orally at three dose levels (3.7, 12.3 and 37 mg kg^−1; 3.2, 10.5 and 31.6 mg kg^−1 per dose, respectively) or vehicle (10 ml kg^−1, 1% HEC, 0.25% Tween-80, Antifoam) for four days. Terminal blood was drawn under general anaesthesia 24 h after the day-4 oral dose. Plasma samples were collected via the abdominal aorta into a premeasured anticoagulant BD Vacutainer used for blood collection (2.7 ml, buffered sodium citrate). The liver was flash frozen in liquid nitrogen. To measure plasminogen activity, 100 µl plasma per well was added to a 96-well plate (Corning) and the following were added to the indicated concentrations: 7.5 mM CaCl2 and 117 mM NaCl. Wells were mixed and warmed to 37 °C. Urokinase (Millipore) was added at 125 U per well and the plate was incubated at 37 °C for 4 min. The plasminogen substrate Chromogenix S-2251 (DiaPharma) was added to a concentration of 3.3 mM. The mixture was added and the plate was sealed and placed in a prewarmed plate reader, shaken, and the absorbance read every 30 s for 2 h. The maximum slope for each curve was determined and the percentage inhibition was calculated relative to untreated controls. Plasminogen protein was measured using ELISA kits for rat (Abcam ab157740) according to the manufacturer’s instructions. Plasminogen activity (percentage) and mass (µg ml^−1) in rat were analysed by ANOVA in JMP 16.1.0. The percentage reduction of plasminogen activity and mass for each treated group was compared with vehicle by Dunnett’s method.

[2] = cynomolgus, oral 20 mg/kg, day 14
[3] = cynomolgus, oral 40 mg/kg, day 14
[4] = cynomolgus, oral 2 mg/kg, day 14
[5] = cynomolgus, oral 10 mg/kg, day 14
[6] = rat, individual animals, dose 3.7 mpk, 3.7 mg/kg
[7] = rat, individual animals, dose 12.3 mpk, 12.3 mg/kg
[8] = rat, individual animals, dose 37 mpk, 37 mg/kg
[9] = rat plasma, 3473329 dose 3.2 mpk, individual animal, 3.2 mg/kg
[10] = rat plasma, 3473329 dose 10.5 mpk, individual animal, 10.5 mg/kg
[11] = rat plasma, 3473329 dose 31.6 mpk, individual animal, 31.6 mg/kg

binding to KIV2 (apo(a) KIV2): does not bind
Cmax [1, 2]: 22.3 µM
Tmax [1, 2]: 1.5 ± 0.5 h
AUC(0-t) ([1]; cynomolgus, oral 20 mg/kg, day 14, read-out: AUC(0–12 h)): 136 µM·h
Cmax [1, 3]: 29.6 µM
Tmax [1, 3]: 1.5 ± 0.5 h
AUC(0-t) ([1]; cynomolgus, oral 40 mg/kg, day 14, read-out: AUC(0–12 h)): 210 µM·h
plasma plasmin activity measured ex vivo (plasmin activity): no inhibitory action
SMILES: Cl.O=C(O)[C@@H](Cc1ccccc1)[C@H]1CCNC1 [LSN3353871]

Kd (apo(a) KIV2): 130000 nM
binding to KIV2 (apo(a) KIV2): ruled out
Fold-difference (KIV2:KIV8) (apo(a) KIV2): >13000
Cmax [1, 4]: 0.754 ± 0.428 µM
Tmax [1, 4]: 3.81 ± 2.14 h
AUC(0-t) ([1]; cynomolgus, oral 2 mg/kg, day 14, read-out: AUC(0-96 hr)): 5.63 µM·h
Cmax [1, 5]: 4.38 µM
Tmax [1, 5]: 2.06 ± 1.32 h
AUC(0-t) ([1]; cynomolgus, oral 10 mg/kg, day 14, read-out: AUC(0-96 hr)): 22.2 µM·h
plasma plasmin activity measured ex vivo (plasmin activity): decreased plasma plasmin activity
SMILES: Cl.Cl.O=C(Nc1cccc(C[C@H](C(=O)O)[C@H]2CCNC2)c1)Nc1cccc(C[C@H](C(=O)O)[C@H]2CCNC2)c1 [LSN3441732]
PLG activity (Vmax), Plasminogen (mean of replicates) (plasmin activity; [6]): 240.6 and 263.3 and 236.5 and 207.9 and 235.8
PLG activity (Vmax), Replicate 1 (plasmin activity; [6]): 239.342 and 259.606 and 234.747 and 204.985 and 233.598
PLG activity (Vmax), Replicate 2 (plasmin activity; [6]): 241.939 and 266.922 and 238.196 and 210.884 and 238.070
PLG activity % change from Vehicle (plasmin activity; [6]): -9.88% and -1.40% and -11.44% and -22.12% and -11.68%
PLG activity (Vmax), Plasminogen (mean of replicates) (plasmin activity; [7]): 282.2 and 249.5 and 239.5 and 205.0 and 186.8
PLG activity (Vmax), Replicate 1 (plasmin activity; [7]): 284.452 and 249.068 and 238.009 and 201.341 and 183.623
PLG activity (Vmax), Replicate 2 (plasmin activity; [7]): 279.877 and 249.884 and 240.921 and 208.639 and 189.912
PLG activity % change from Vehicle (plasmin activity; [7]): 5.68% and -6.57% and -10.32% and -23.23% and -30.05%
PLG activity (Vmax), Plasminogen (mean of replicates) (plasmin activity; [8]): 195.8 and 173.1 and 184.9 and 150.3 and 200.6
PLG activity (Vmax), Replicate 1 (plasmin activity; [8]): 217.532 and 172.649 and 184.379 and 149.241 and 196.980
PLG activity (Vmax), Replicate 2 (plasmin activity; [8]): 174.037 and 173.594 and 185.398 and 151.449 and 204.259
PLG activity % change from Vehicle (plasmin activity; [8]): -26.67% and -35.16% and -30.76% and -43.69% and -24.86%

Kd (apo(a) KIV2): 3900 nM
Fold-difference (KIV2:KIV8) (apo(a) KIV2): 177
Cmax ([1]; Chinese cynomolgus, oral 1 mg/kg, day 15): 0.911 ± 0.225 µM
AUC(0-t) ([1]; Chinese cynomolgus, oral 1 mg/kg, day 15, read-out: AUC(0-96 hr)): 35.8 µM·h
Tmax ([1]; Chinese cynomolgus, oral 10 mg/kg, day 15): 0.5 h
Cmax ([1]; Chinese cynomolgus, oral 100 mg/kg, day 15): 4.85 µM
SMILES: O=C(O)[C@@H](Cc1cccc(CN(Cc2cccc(C[C@H](C(=O)O)[C@H]3CCNC3)c2)Cc2cccc(C[C@H](C(=O)O)[C@H]3CCNC3)c2)c1)[C@H]1CCNC1 [LY3473329]
PLG activity (Vmax), Plasminogen (mean of replicates) (plasmin activity; [9]): 454.0 and 451.6 and 414.5 and 449.4 and 437.1
PLG activity (Vmax), Replicate 1 (plasmin activity; [9]): 455.671 and 447.416 and 413.515 and 443.630 and 436.745
PLG activity (Vmax), Replicate 2 (plasmin activity; [9]): 452.252 and 455.835 and 415.508 and 455.110 and 437.378
PLG activity (Vmax), % change from Vehicle (plasmin activity; [9]): 5.15% and 4.60% and -3.99% and 4.08% and 1.23%
PLG activity (Vmax), Plasminogen (mean of replicates) (plasmin activity; [10]): 426.8 and 390.7 and 429.5 and 340.1 and 383.7
PLG activity (Vmax), Replicate 1 (plasmin activity; [10]): 431.402 and 387.065 and 425.922 and 337.633 and 378.355
PLG activity (Vmax), Replicate 2 (plasmin activity; [10]): 422.258 and 394.290 and 433.134 and 342.491 and 389.046
PLG activity (Vmax), % change from Vehicle (plasmin activity; [10]): -1.14% and -9.51% and -0.51% and -21.24% and -11.13%
PLG activity (Vmax), Plasminogen (mean of replicates) (plasmin activity; [11]): 357.4 and 336.9 and 317.3 and 381.6 and 333.2
PLG activity (Vmax), Replicate 1 (plasmin activity; [11]): 356.862 and 337.031 and 314.998 and 380.162 and 336.487
PLG activity (Vmax), Replicate 2 (plasmin activity; [11]): 357.898 and 336.831 and 319.531 and 383.010 and 329.925
PLG activity (Vmax), % change from Vehicle (plasmin activity; [11]): -17.22% and -21.96% and -26.52% and -11.62% and -22.82%
